Target: VMAT2 (Mus musculus, UniProt Q8BRU6)
Test: Blocking study in normal mice, co-injection of DTBZ or raclopride
Assay type: in vivo
Design: from tissue; host or cells: living ICR mice and lesioned mice; brain regions dissected after iv injection
Conditions: 30 min after iv
Procedure: While under isoflurane anesthesia, 0.15 mL of a 0.1% bovine serum albumin solution containing [^18F]tracers (10-20 μCi) were injected directly into the tail vein of ICR mice (22-25 g, male) The mice (n=3 for each time point) were sacrificed by cervical dislocation at indicated time points post injection. The organs of interest were removed and weighed, and the radioactivity was counted with an automatic gamma counter. The percentage dose per organ was calculated by a comparison of the tissue counts to suitably diluted aliquots of the injected material. Total activities of blood were calculated under the assumption that they were 7% of the total body weight. The % dose/g of samples was calculated by comparing the sample counts with the count of the diluted initial dose. Different regions corresponding to striatum (ST), hippocampus (HP), cerebellum (CB), and cortex (CX) were dissected out from the brain.
Blocking studies were carried out by co-injection (iv) of the ^18F tracer with (±)DTBZ (3 mg/kg) or raclopride (1.2 mg/kg) into the animals. Thirty minutes after the injection, the animals were sacrificed and the brain regions including ST, HP, CB and CX were dissected out and the % dose/g were calculated. The ratios of target (ST) vs nontarget (CB) were compared between control and blocked groups.

Sequence of VMAT2 (Q8BRU6 whole entry): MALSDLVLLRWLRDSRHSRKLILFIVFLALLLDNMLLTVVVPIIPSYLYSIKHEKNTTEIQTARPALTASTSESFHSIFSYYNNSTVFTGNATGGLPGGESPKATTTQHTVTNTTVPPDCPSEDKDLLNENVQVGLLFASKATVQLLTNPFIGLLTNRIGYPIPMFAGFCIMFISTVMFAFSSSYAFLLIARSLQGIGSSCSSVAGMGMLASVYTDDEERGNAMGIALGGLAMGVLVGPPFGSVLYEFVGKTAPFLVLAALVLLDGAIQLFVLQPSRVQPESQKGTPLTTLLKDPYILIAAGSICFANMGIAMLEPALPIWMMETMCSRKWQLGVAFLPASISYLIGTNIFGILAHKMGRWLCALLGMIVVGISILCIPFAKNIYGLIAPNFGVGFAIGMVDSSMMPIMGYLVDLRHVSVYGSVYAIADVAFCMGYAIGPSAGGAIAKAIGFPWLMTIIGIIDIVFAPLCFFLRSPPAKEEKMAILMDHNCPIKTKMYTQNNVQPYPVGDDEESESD

What does the source list for `COc1cc2c(cc1OCCC[18F])CCN1CC(CC(C)C)C(O)CC21` (racemic) [[^18F]6b]?
Organ distribution Blood (Control): 1.41 ± 0.20 % dose/g; Organ distribution Bone (Control): 6.06 ± 1.11 % dose/g; Organ distribution Brain (Control): 1.40 ± 0.12 % dose/g; Organ distribution Heart (Control): 2.05 ± 0.13 % dose/g; Organ distribution Kidney (Control): 5.90 ± 0.42 % dose/g; Organ distribution Liver (Control): 13.9 ± 1.15 % dose/g; Organ distribution Lung (Control): 2.78 ± 0.20 % dose/g; Organ distribution Muscle (Control): 1.06 ± 0.06 % dose/g; Organ distribution Skin (Control): 1.48 ± 0.09 % dose/g; Organ distribution Spleen (Control): 2.90 ± 0.14 % dose/g; Ratio (vs CB) Cortex (Control): 1.15; Ratio (vs CB) Hippocampus (Control): 1.36; Ratio (vs CB) Hypothalamus (Control): 2.54; Ratio (vs CB) Striatum (Control): 3.40; Regional brain distribution Cerebellum (CB) (Control): 1.05 ± 0.09 % dose/g; Regional brain distribution Cortex (Control): 1.21 ± 0.15 % dose/g; Regional brain distribution Hippocampus (Control): 1.43 ± 0.12 % dose/g; Regional brain distribution Hypothalamus (Control): 2.67 ± 0.30 % dose/g; Regional brain distribution Striatum (Control): 3.57 ± 0.30 % dose/g; Organ distribution Blood (with 1.2 mg/kg raclopride): 1.60 ± 0.08 % dose/g; Organ distribution Bone (with 1.2 mg/kg raclopride): 6.03 ± 1.07 % dose/g; Organ distribution Brain (with 1.2 mg/kg raclopride): 1.64 ± 0.16 % dose/g; Organ distribution Heart (with 1.2 mg/kg raclopride): 2.29 ± 0.06 % dose/g; Organ distribution Kidney (with 1.2 mg/kg raclopride): 6.01 ± 0.50 % dose/g; Organ distribution Liver (with 1.2 mg/kg raclopride): 14.6 ± 0.44 % dose/g; Organ distribution Lung (with 1.2 mg/kg raclopride): 3.34 ± 0.24 % dose/g; Organ distribution Muscle (with 1.2 mg/kg raclopride): 1.15 ± 0.03 % dose/g; Organ distribution Skin (with 1.2 mg/kg raclopride): 1.58 ± 0.09 % dose/g; Organ distribution Spleen (with 1.2 mg/kg raclopride): 3.25 ± 0.20 % dose/g; Ratio (vs CB) Cortex (with 1.2 mg/kg raclopride): 1.18; Ratio (vs CB) Hippocampus (with 1.2 mg/kg raclopride): 1.59; Ratio (vs CB) Hypothalamus (with 1.2 mg/kg raclopride): 2.12; Ratio (vs CB) Striatum (with 1.2 mg/kg raclopride): 3.93; Regional brain distribution Cerebellum (CB) (with 1.2 mg/kg raclopride): 1.19 ± 0.11 % dose/g; Regional brain distribution Cortex (with 1.2 mg/kg raclopride): 1.41 ± 0.15 % dose/g; Regional brain distribution Hippocampus (with 1.2 mg/kg raclopride): 1.89 ± 0.85 % dose/g; Regional brain distribution Hypothalamus (with 1.2 mg/kg raclopride): 2.52 ± 0.77 % dose/g; Regional brain distribution Striatum (with 1.2 mg/kg raclopride): 4.67 ± 1.29 % dose/g; Organ distribution Blood (with 3 mg/kg (+)DTBZ): 1.67 ± 0.04 % dose/g; Organ distribution Bone (with 3 mg/kg (+)DTBZ): 6.54 ± 0.84 % dose/g; Organ distribution Brain (with 3 mg/kg (+)DTBZ): 0.86 ± 0.04 % dose/g; Organ distribution Heart (with 3 mg/kg (+)DTBZ): 2.36 ± 0.07 % dose/g; Organ distribution Kidney (with 3 mg/kg (+)DTBZ): 4.94 ± 3.38 % dose/g; Organ distribution Liver (with 3 mg/kg (+)DTBZ): 14.0 ± 0.56 % dose/g; Organ distribution Lung (with 3 mg/kg (+)DTBZ): 3.27 ± 0.17 % dose/g; Organ distribution Muscle (with 3 mg/kg (+)DTBZ): 1.28 ± 0.07 % dose/g; Organ distribution Skin (with 3 mg/kg (+)DTBZ): 1.67 ± 0.02 % dose/g; Organ distribution Spleen (with 3 mg/kg (+)DTBZ): 2.67 ± 0.17 % dose/g; Ratio (vs CB) Cortex (with 3 mg/kg (+)DTBZ): 1.03; Ratio (vs CB) Hippocampus (with 3 mg/kg (+)DTBZ): 0.94; Ratio (vs CB) Hypothalamus (with 3 mg/kg (+)DTBZ): 1.04; Ratio (vs CB) Striatum (with 3 mg/kg (+)DTBZ): 0.98; Regional brain distribution Cerebellum (CB) (with 3 mg/kg (+)DTBZ): 0.89 ± 0.16 % dose/g; Regional brain distribution Cortex (with 3 mg/kg (+)DTBZ): 0.91 ± 0.13 % dose/g; Regional brain distribution Hippocampus (with 3 mg/kg (+)DTBZ): 0.83 ± 0.27 % dose/g; Regional brain distribution Hypothalamus (with 3 mg/kg (+)DTBZ): 0.92 ± 0.23 % dose/g; Regional brain distribution Striatum (with 3 mg/kg (+)DTBZ): 0.87 ± 0.18 % dose/g

Source: patent US8562949B2, “Radiolabeled dihydrotetrabenazine derivatives and their use as imaging agents” (The Trustees of the University of Pennsylvania, priority 2006, dated 2013)
